Active and inactive are the calls of the source. The rule behind the calls is not given here.
What was measured:
U-87 MG [1] = assay: Cell cycle arrest in U87MG cells by accumulation at SubG1 phase at 7.0 uM after 12 hrs; assay type: functional, Homo sapiens, U-87MG ATCC
U-87 MG [2] = assay: Induction of apoptosis measured as down regulation of Bcl2 expression in human U87MG cell line by Western blot analysis at 7.0 uM after 6 hrs; assay type: functional, cell-based; details: U-87MG ATCC
U-87 MG [3] = assay: Cell cycle arrest in U87MG cells by accumulation at G0/G1 phase at 3.6 uM after 12 hrs; assay type: functional, Homo sapiens, U-87MG ATCC
U-87 MG [4] = assay: Cell cycle arrest in U87MG cells by accumulation at G2/M phase at 3.6 uM after 24 hrs; assay type: functional, Homo sapiens, U-87MG ATCC
U-87 MG [5] = assay: Cell cycle arrest in U87MG cells by accumulation at SubG1 phase at 3.6 uM after 12 hrs; assay type: functional, Homo sapiens, U-87MG ATCC
U-87 MG [6] = assay: Induction of apoptosis measured as chromatin condensation in human U87MG cell line at 7.0 uM after 24 hrs by hoechst 33342 staining; assay type: functional, cell-based; details: U-87MG ATCC
U-87 MG [7] = assay: Cell cycle arrest in U87MG cells by accumulation at G0/G1 phase at 2.6 uM after 24 hrs; assay type: functional, Homo sapiens, U-87MG ATCC
U-87 MG [8] = assay: Induction of apoptosis assessed as phosphatidylserine externalization in human U87MG cell line at 7.0 uM after 24 hrs by annexinV/PI assay; assay type: functional, cell-based; details: U-87MG ATCC
U-87 MG [9] = assay: Cell cycle arrest in U87MG cells by accumulation at SubG1 phase at 2.6 uM after 24 hrs; assay type: functional, Homo sapiens, U-87MG ATCC
U-87 MG [10] = assay: Induction of apoptosis measured as up regulation of Bax expression in human U87MG cell line by Western blot analysis at 7.0 uM after 6 hrs; assay type: functional, cell-based; details: U-87MG ATCC
U-87 MG [11] = assay: Cell cycle arrest in U87MG cells by accumulation at G0/G1 phase at 7.0 uM after 12 hrs; assay type: functional, Homo sapiens, U-87MG ATCC
U-87 MG [12] = assay: Cell cycle arrest in U87MG cells by accumulation at S phase at 2.6 uM after 24 hrs; assay type: functional, Homo sapiens, U-87MG ATCC
U-87 MG [13] = assay: Cell cycle arrest in U87MG cells by accumulation at S phase at 7.0 uM after 12 hrs; assay type: functional, Homo sapiens, U-87MG ATCC
U-87 MG [14] = assay: Cell cycle arrest in U87MG cells by accumulation at G2/M phase at 7.0 uM after 24 hrs; assay type: functional, Homo sapiens, U-87MG ATCC
U-87 MG [15] = assay: Cell cycle arrest in U87MG cells by accumulation at G0/G1 phase at 3.6 uM after 24 hrs; assay type: functional, Homo sapiens, U-87MG ATCC
U-87 MG [16] = assay: Cell cycle arrest in U87MG cells by accumulation at S phase at 3.6 uM after 12 hrs; assay type: functional, Homo sapiens, U-87MG ATCC
U-87 MG [17] = assay: Cell cycle arrest in U87MG cells by accumulation at G2/M phase at 3.6 uM after 12 hrs; assay type: functional, Homo sapiens, U-87MG ATCC
U-87 MG [18] = assay: Cell cycle arrest in U87MG cells by accumulation at S phase at 7.0 uM after 24 hrs; assay type: functional, Homo sapiens, U-87MG ATCC
U-87 MG [19] = assay: Cell cycle arrest in U87MG cells by accumulation at G0/G1 phase at 7.0 uM after 24 hrs; assay type: functional, Homo sapiens, U-87MG ATCC
U-87 MG [20] = assay: Cell cycle arrest in U87MG cells by accumulation at SubG1 phase at 7.0 uM after 24 hrs; assay type: functional, Homo sapiens, U-87MG ATCC
U-87 MG [21] = assay: Antiproliferative activity against human U87MG cell line by MTT assay; assay type: functional, cell-based, U-87MG ATCC
U-87 MG [22] = assay: Cell cycle arrest in U87MG cells by accumulation at SubG1 phase at 2.6 uM after 12 hrs; assay type: functional, Homo sapiens, U-87MG ATCC
U-87 MG [23] = assay: Cell cycle arrest in U87MG cells by accumulation at SubG1 phase at 3.6 uM after 24 hrs; assay type: functional, Homo sapiens, U-87MG ATCC
U-87 MG [24] = assay: Induction of apoptosis measured as up regulation of Bax expression in human U87MG cell line by Western blot analysis at 7.0 uM after 24 hrs; assay type: functional, cell-based; details: U-87MG ATCC
U-87 MG [25] = assay: Cell cycle arrest in U87MG cells by accumulation at G0/G1 phase at 2.6 uM after 12 hrs; assay type: functional, Homo sapiens, U-87MG ATCC
U-87 MG [26] = assay: Cell cycle arrest in U87MG cells by accumulation at S phase at 3.6 uM after 24 hrs; assay type: functional, Homo sapiens, U-87MG ATCC
U-87 MG [27] = assay: Cell cycle arrest in U87MG cells by accumulation at G2/M phase at 7.0 uM after 12 hrs; assay type: functional, Homo sapiens, U-87MG ATCC
U-87 MG [28] = assay: Induction of apoptosis measured as down regulation of Bcl2 expression in human U87MG cell line by Western blot analysis at 7.0 uM after 24 hrs; assay type: functional, cell-based; details: U-87MG ATCC
U-87 MG [29] = assay: Cell cycle arrest in U87MG cells by accumulation at G2/M phase at 2.6 uM after 24 hrs; assay type: functional, Homo sapiens, U-87MG ATCC
U-87 MG [30] = assay: Cell cycle arrest in U87MG cells by accumulation at G2/M phase at 2.6 uM after 12 hrs; assay type: functional, Homo sapiens, U-87MG ATCC
U-87 MG [31] = assay: Cell cycle arrest in U87MG cells by accumulation at S phase at 2.6 uM after 12 hrs; assay type: functional, Homo sapiens, U-87MG ATCC

C[C@@H]1O[C@H]2O[C@@H]3[C@H](OC[C@@H](O)[C@H]3O)OC(=O)[C@]34CCC(C)(C)CC3C3=CCC5[C@@]6(C)C[C@H](O)[C@H](O[C@@H]7O[C@H](CO)[C@@H](O)[C@H](O)[C@H]7O[C@H]7O[C@@H](COC(=O)C[C@](C)(O)CC(=O)O[C@@H]1[C@@H](O[C@@H]1OC[C@@H](O)[C@H](O)[C@H]1O)[C@H]2O)[C@H](O)[C@@H](O)[C@@H]7O)[C@@](C)(CO)C6CC[C@@]5(C)[C@]3(C)CC4 (stereo partly drawn) [TUBEIMOSIDE V] was tested, and the Activity (U-87 MG [1]) was 18.3%, the Activity (U-87 MG [2]) was “Active” and the Activity (U-87 MG [3]) was 51%. For the same compound, the Activity (U-87 MG [4]) was 12.3%, the Activity (U-87 MG [5]) was 8.9% and the Activity (U-87 MG [6]) was “Active”. For the same compound, the Activity (U-87 MG [7]) was 51.3%, the Activity (U-87 MG [8]) was “Active” and the Activity (U-87 MG [9]) was 9.1%. The Activity (U-87 MG [10]) was “Active”, the Activity (U-87 MG [11]) was 53.3% and the Activity (U-87 MG [12]) was 31%. The Activity (U-87 MG [13]) was 32.6%, the Activity (U-87 MG [14]) was 9.6% and the Activity (U-87 MG [15]) was 53.5%. It also gave an Activity (U-87 MG [16]) of 31.4%, an Activity (U-87 MG [17]) of 17.6% and an Activity (U-87 MG [18]) of 37.1%. For the same compound, the Activity (U-87 MG [19]) was 53.3%, the Activity (U-87 MG [20]) was 42.3% and the IC25 (U-87 MG [21]) was 2.6 µM. It also gave an IC50 (U-87 MG [21]) of 3.6 µM, an IC75 (U-87 MG [21]) of 7 µM and an Activity (U-87 MG [22]) of 4.1%. For the same compound, the Activity (U-87 MG [23]) was 20.8%, the Activity (U-87 MG [24]) was “Active” and the Activity (U-87 MG [25]) was 50.1%. The Activity (U-87 MG [26]) was 34.2%, the Activity (U-87 MG [27]) was 14.1% and the Activity (U-87 MG [28]) was “Active”. The Activity (U-87 MG [29]) was 17.7%, the Activity (U-87 MG [30]) was 22.3% and the Activity (U-87 MG [31]) was 27.6%.

Source: ChEMBL document CHEMBL1137259, “Tubeimoside V (1), a new cyclic bisdesmoside from tubers of Bolbostemma paniculatum, functions by inducing apoptosis in human glioblastoma U87MG cells” (Bioorg Med Chem Lett, 2006)
